How the values were obtained:
[1] = target: T1, 2-5A-dependent ribonuclease (Homo sapiens, UniProt Q05823); experiment: Activation of purified recombinant human Ribonuclease L by the compound was measured as degradation of [32P]-pC11U2C7
T1 sequence (Q05823 whole entry): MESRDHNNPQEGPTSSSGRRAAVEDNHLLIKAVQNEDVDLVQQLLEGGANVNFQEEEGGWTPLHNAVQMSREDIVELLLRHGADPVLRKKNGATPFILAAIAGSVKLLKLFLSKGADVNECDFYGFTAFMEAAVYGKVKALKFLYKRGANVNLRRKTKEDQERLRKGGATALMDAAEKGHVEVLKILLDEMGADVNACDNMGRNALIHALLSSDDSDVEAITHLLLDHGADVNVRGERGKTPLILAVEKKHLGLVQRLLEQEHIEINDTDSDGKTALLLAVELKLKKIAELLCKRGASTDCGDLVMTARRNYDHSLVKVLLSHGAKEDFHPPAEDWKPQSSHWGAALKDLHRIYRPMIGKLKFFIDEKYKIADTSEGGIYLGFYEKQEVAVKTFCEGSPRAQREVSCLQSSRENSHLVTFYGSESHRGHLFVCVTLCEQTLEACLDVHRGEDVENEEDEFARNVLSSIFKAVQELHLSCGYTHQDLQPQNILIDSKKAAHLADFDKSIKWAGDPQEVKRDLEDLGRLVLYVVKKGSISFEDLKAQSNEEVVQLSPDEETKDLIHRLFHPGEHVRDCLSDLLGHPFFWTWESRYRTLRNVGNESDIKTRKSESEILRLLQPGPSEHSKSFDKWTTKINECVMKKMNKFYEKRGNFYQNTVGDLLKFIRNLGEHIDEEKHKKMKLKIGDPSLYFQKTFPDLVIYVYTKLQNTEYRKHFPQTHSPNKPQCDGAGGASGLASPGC

[2] = target: T1, 2-5A-dependent ribonuclease; experiment: Activation of purified recombinant human Ribonuclease L by the compound was measured as degradation of poly (U) 3'[32P]p5'C3'p
[3] = target: T1, 2-5A-dependent ribonuclease; experiment: Compound was tested for its binding ability, by displacement of p(A2'p)3A3'[32p]p5'Cp from recombinant human ribonuclease L
[4] = (§1) Relative concentration required to cause 50% degradation of the [32P]-pC11U2C7
[5] = (§2) Relative concentration required to cause 50% degradation of the poly (U) 3'[32P]p5'C3'p
[6] = Ratio of quotient (binding IC50)/(activation EC50 for the poly (U) assay)
[7] = (§3) Relative concentration required to displace 50% of the p(A2'p)3A3'[32p]p5'Cp
[8] = as §1; assay type: functional
[9] = as §2; assay type: functional
[10] = as §3; assay type: functional

EC50 [1] | EC50 [2] | IC50 [3] | Crel [4] | Crel [5] | Rn [6] | Crel [7] | Compound | Crel [8] | Crel [9] | Crel [10]
0.3 nM | 0.24 nM | 0.72 nM | 1.5 | 2 | 0.06 | 0.1 | Cc1nc(N)c2ncn([C@@H]3O[C@H](COP(=O)(O)O[C@@H]4[C@H](O)[C@@H](COP(=O)(O)O[C@@H]5[C@H](O)[C@@H](COP(=O)(O)OP(=O)(O)OP(=O)(O)O)O[C@H]5n5cnc6c(N)ncnc65)O[C@H]4n4cnc5c(N)ncnc54)[C@@H](O)[C@H]3O)c2n1 |  |  | 
0.8 nM | 0.68 nM | 24 nM | 4 | 5 | 0.7 | 3 | Cc1nc(N)c2ncn([C@@H]3O[C@H](COP(=O)(O)OP(=O)(O)OP(=O)(O)O)[C@@H](O)[C@H]3OP(=O)(O)OC[C@H]3O[C@@H](n4cnc5c(N)ncnc54)[C@H](OP(=O)(O)OC[C@H]4O[C@@H](n5cnc6c(N)ncnc65)[C@H](O)[C@@H]4O)[C@@H]3O)c2n1 |  |  | 
0.2 nM | 0.13 nM | 2.6 nM |  |  | 0.4 |  | Cc1nc(N)c2ncn([C@@H]3O[C@H](COP(=O)(O)O[C@@H]4[C@H](O)[C@@H](COP(=O)(O)O[C@@H]5[C@H](O)[C@@H](COP(=O)(O)O)O[C@H]5n5cnc6c(N)ncnc65)O[C@H]4n4cnc5c(N)ncnc54)[C@@H](O)[C@H]3O)c2n1 | 1 | 0.9 | 0.4
4 nM | 4.6 nM | 105 nM | 20 | 31 | 0.5 | 15 | Cc1nc(N)c2ncn([C@@H]3O[C@H](COP(=O)(O)O[C@@H]4[C@H](O)[C@@H](COP(=O)(O)O[C@@H]5[C@H](O)[C@@H](COP(=O)(O)OP(=O)(O)OP(=O)(O)O)O[C@H]5n5cnc6c(N)nc(C)nc65)O[C@H]4n4cnc5c(N)nc(C)nc54)[C@@H](O)[C@H]3O)c2n1 |  |  | 
0.7 nM | 0.84 nM | 57 nM | 2.7 | 6 | 1.4 | 8 | Cc1nc(N)c2ncn([C@@H]3O[C@H](COP(=O)(O)O)[C@@H](O)[C@H]3OP(=O)(O)OC[C@H]3O[C@@H](n4cnc5c(N)ncnc54)[C@H](OP(=O)(O)OC[C@H]4O[C@@H](n5cnc6c(N)ncnc65)[C@H](O)[C@@H]4O)[C@@H]3O)c2n1 |  |  | 
30 nM | 16 nM | 1060 nM | 120 | 107 | 1.4 | 146 | Cc1nc(N)c2ncn([C@@H]3O[C@H](COP(=O)(O)O[C@@H]4[C@H](O)[C@@H](COP(=O)(O)O[C@@H]5[C@H](O)[C@@H](COP(=O)(O)O)O[C@H]5n5cnc6c(N)nc(C)nc65)O[C@H]4n4cnc5c(N)nc(C)nc54)[C@@H](O)[C@H]3O)c2n1 |  |  | 
 |  |  | 1 | 1 | 1 | 1 | Nc1ncnc2c1ncn2[C@@H]1O[C@H](COP(=O)(O)O[C@@H]2[C@H](O)[C@@H](COP(=O)(O)O[C@@H]3[C@H](O)[C@@H](COP(=O)(O)O)O[C@H]3n3cnc4c(N)ncnc43)O[C@H]2n2cnc3c(N)ncnc32)[C@@H](O)[C@H]1O |  |  | 

— ChEMBL document CHEMBL1133074, “2-Methyladenosine-Substituted 2',5'-oligoadenylates: conformations, 2-5A binding and catalytic activities with human ribonuclease L” (Bioorg Med Chem Lett, 2000)
